Data reported in US20220362276A1, “Small Molecule Inhibitors of Viral Replication” (The Trustees of Princeton University, priority 2019, published 2022).
“Also recorded” adds a separate entry of the source.

Key:
Huh7 cells = assay: ATP-based cell viability assay (CellTiterGlo); conditions: Huh7 cells, day 4
Description: Measurement of Cytotoxicity by CellTiterGlo Assay. […] Readout was performed using a Berthold luminometer.

[1] = test system: TW6196E/Gluc (genotype 4); assay: Dose titration against TW6196E/Gluc replicon; conditions: genotype 4, poor replicative capacity
OTC = molecular target: T1, OTC (Homo sapiens, UniProt P00480); assay: Two-dimensional thermal proteome profiling (CETSA) in crude cell extract; conditions: isocotoin 0.5-30 μM, 37-66.3 °C
T1 sequence (P00480 33-354): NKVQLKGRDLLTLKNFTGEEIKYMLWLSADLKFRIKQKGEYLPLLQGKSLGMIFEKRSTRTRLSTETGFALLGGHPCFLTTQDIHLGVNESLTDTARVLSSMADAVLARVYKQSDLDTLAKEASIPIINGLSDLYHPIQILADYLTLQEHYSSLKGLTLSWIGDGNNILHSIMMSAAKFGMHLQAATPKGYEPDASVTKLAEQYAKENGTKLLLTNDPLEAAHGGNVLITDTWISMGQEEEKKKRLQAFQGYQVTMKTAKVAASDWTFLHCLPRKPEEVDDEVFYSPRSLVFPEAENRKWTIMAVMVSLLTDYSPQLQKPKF

[2] = test system: YFV17D-Gluc-BSD-Ires (YFV17D); type: cell-based, yellow fever virus 17-D vaccine strain
[3] = test system: translation of T7-tagBFP-Gluc; assay: Translation inhibition assay (T7-tagBFP-Gluc RNA in Huh7 cells); type: cell-based; conditions: 4 days
Description: Generation of T7-tagBFP-Gluc. To make the T7-TagBFP-GLuc construct, SP6-TagBFP-2A-FLuc was used as a template and the primers PU-O-6099 and PU-O-6100 were designed to partially anneal immediately upstream and downstream of the SP6 promoter. The unbound portions of PU-O-6099 and PU-O-6100 contained the T7 promoter sequence. […] Next, PCR amplification of the T7-TagBFP-2A backbone was completed using the Q5® High-Fidelity DNA Polymerase and PU-O-6101 and PU-O-6102 as the primers. […] The Gluc insert was then ligated to the T7-TagBFP-2A backbone using the In-Fusion® HD Cloning Kit.
Translation Inhibition Assay. Huh7 cells were seeded at 6,250 cells per well in 96-well format. The cells were then transfected with 50 ng T7-TagBFP-Gluc in vitro transcribed RNA per well. Five hours post-transfection, transfection medium was changed to medium containing isocotoin, ribavirin, cycloheximide, or roclagamide at 6 or 7 different concentrations. DMSO concentration was kept constant in all the wells at 0.125%. For each drug dose, triplicate wells were tested. On day four post-transfection, a luciferase assay was performed on supernatant media to measure Gluc expression.

[4] = test system: p6/BSR-2A-ZsGreen replicon

COc1cc(O)cc(O)c1C(=O)c1ccccc1 [isocotoin, 4-benzoyl-5-methoxybenzene-1,3-diol]
doses at which cytotoxicity was displayed (Huh7 cells): ≥ 25 µM
doses up to which no cytotoxicity was displayed (Huh7 cells): up to 12.5 μM
inhibition of TW6196E/Gluc replication, in words [1]: modest inhibitory effect; also recorded: inhibits replication
soluble protein fraction of OTC (OTC): among hits showing the greatest increase in soluble protein fraction
inhibition of YFV17D replication, in words [2]: dose-dependent inhibitory effects; also recorded: to a greater extent than ribavirin
effect on translation / Gluc levels, in words [3]: did not lead to a significant decrease in Gluc levels; also recorded: do not inhibit translation
toxicity to cells on passaging ([4]; 30 μM isocotoin dose): some toxicity
ZsGreen levels on passaging ([4]; 30 μM isocotoin, first few passages): sharp decrease in ZsGreen levels
